Reference: the supplement of paper PMC11208160

Assay: recombinant UMI read abundance after kanamycin selection (control-corrected) (log10(CPM+1)); higher = more efficient recombination; extreme values may be limits of the assay; sequences stand for … in AGTGCAGAGAAAATCGGCCAGTTTTCTCTGCCTGCAGTCCGCATGCCGTGGGACCCCTTGGGTTCTAACCTGTTGCCTAGATTTATGCAGCGGACTGCCTTTCTCCCAAAGTGATAAACCGG…AGGTTGGTTTCACT; site = the 11-nt donor
Procedure, shortened: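 The measure is log10(CPM+1) for recombinant UMIs. These were PCR-amplified across the donor–target junction and sequenced after Escherichia coli carrying a donor and donor-binding-loop pair library and a target plasmid with T7-inducible IS621 bridge recombinase was plated on IPTG (0.07 mM) plus kanamycin or unselected. CPM were averaged over two replicates and scaled by control-derived factors.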
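Note: IS621 bridge recombinase in Escherichia coli cells against a fixed T5 target plasmid.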

Row | Sequence | recombinant UMI read abundance (log10)
1 | CAAGCCGCATGGACCGGTTTTCCCGGTAATCCGTATTTGCT (site CAAGCGGCTAG) | 0.00324
2 | CAAGCCGCATGGACCGGTTTTCCCGGTAATCCGTATTTGCT (site CAAGCTGCTAG) | 0
3 | CAAGCGCCATGGACCGGTTTTCCCGGTAATCCGTATTTGGG (site CAAGCGCCTCA) | 0.0177
4 | CAAGCGCCATGGACCGGTTTTCCCGGTAATCCGTATTTGGG (site CAAGCGCCTCC) | 0.0155
5 | CAAGCGCCATGGACCGGTTTTCCCGGTAATCCGTATTTGGG (site CAAGCGCCTCG) | 0.0252
6 | CAAGCGCCATGGACCGGTTTTCCCGGTAATCCGTATTTGGG (site CAAGCGCCTCT) | 0.0195
7 | CAAGCGCCATGGACCGGTTTTCCCGGTAATCCGTATTTGTG (site AAAGCGCCTCA) | 0.0176
8 | CAAGCGCCATGGACCGGTTTTCCCGGTAATCCGTATTTGTG (site CAAACGCCTCA) | 0.0285
9 | CAAGCGCCATGGACCGGTTTTCCCGGTAATCCGTATTTGTG (site CAACCGCCTCA) | 0.0221
10 | CAAGCGCCATGGACCGGTTTTCCCGGTAATCCGTATTTGTG (site CAAGAGCCTCA) | 0.0105
11 | CAAGCGCCATGGACCGGTTTTCCCGGTAATCCGTATTTGTG (site CAAGCACCTCA) | 0.0231
12 | CAAGCGCCATGGACCGGTTTTCCCGGTAATCCGTATTTGTG (site CAAGCCCCTCA) | 0.0168
13 | CAAGCGCCATGGACCGGTTTTCCCGGTAATCCGTATTTGTG (site CAAGCGACTCA) | 0.0185
14 | CAAGCGCCATGGACCGGTTTTCCCGGTAATCCGTATTTGTG (site CAAGCGCCTAA) | 0.00762
15 | CAAGCGCCATGGACCGGTTTTCCCGGTAATCCGTATTTGTG (site CAAGCGCCTCA) | 0.0111
16 | CAAGCGCCATGGACCGGTTTTCCCGGTAATCCGTATTTGTG (site CAAGCGCCTCC) | 0.0342
17 | CAAGCGCCATGGACCGGTTTTCCCGGTAATCCGTATTTGTG (site CAAGCGCCTCG) | 1.36
18 | CAAGCGCCATGGACCGGTTTTCCCGGTAATCCGTATTTGTG (site CAAGCGCCTCT) | 0.218
19 | CAAGCGCCATGGACCGGTTTTCCCGGTAATCCGTATTTGTG (site CAAGCGCCTGA) | 0.706
20 | CAAGCGCCATGGACCGGTTTTCCCGGTAATCCGTATTTGTG (site CAAGCGCCTTA) | 0.627
21 | CAAGCGCCATGGACCGGTTTTCCCGGTAATCCGTATTTGTG (site CAAGCGGCTCA) | 0.00842
22 | CAAGCGCCATGGACCGGTTTTCCCGGTAATCCGTATTTGTG (site CAAGCGTCTCA) | 1.85
23 | CAAGCGCCATGGACCGGTTTTCCCGGTAATCCGTATTTGTG (site CAAGCTCCTCA) | 0.185
24 | CAAGCGCCATGGACCGGTTTTCCCGGTAATCCGTATTTGTG (site CAAGGGCCTCA) | 0.0216
25 | CAAGCGCCATGGACCGGTTTTCCCGGTAATCCGTATTTGTG (site CAAGTGCCTCA) | 0.0157

Row | Sequence | recombinant UMI read abundance (log10)
26 | CAAGCGCCATGGACCGGTTTTCCCGGTAATCCGTATTTGTG (site CAATCGCCTCA) | 0.0117
27 | CAAGCGCCATGGACCGGTTTTCCCGGTAATCCGTATTTGTG (site CACGCGCCTCA) | 0.0238
28 | CAAGCGCCATGGACCGGTTTTCCCGGTAATCCGTATTTGTG (site CAGGCGCCTCA) | 0.0473
29 | CAAGCGCCATGGACCGGTTTTCCCGGTAATCCGTATTTGTG (site CATGCGCCTCA) | 0.047
30 | CAAGCGCCATGGACCGGTTTTCCCGGTAATCCGTATTTGTG (site CCAGCGCCTCA) | 0.00697
31 | CAAGCGCCATGGACCGGTTTTCCCGGTAATCCGTATTTGTG (site CGAGCGCCTCA) | 0.0092
32 | CAAGCGCCATGGACCGGTTTTCCCGGTAATCCGTATTTGTG (site CTAGCGCCTCA) | 0.0166
33 | CAAGCGCCATGGACCGGTTTTCCCGGTAATCCGTATTTGTG (site GAAGCGCCTCA) | 0.0137
34 | CAAGCGCCATGGACCGGTTTTCCCGGTAATCCGTATTTGTG (site TAAGCGCCTCA) | 0.0306
35 | CAAGCGGCATGGACCGGTTTTCCCGGTAATCCGTATTTGCT (site CAAGCAGCTAG) | 0.584
36 | CAAGCGGCATGGACCGGTTTTCCCGGTAATCCGTATTTGCT (site CAAGCCGCTAG) | 0
37 | CAAGCGGCATGGACCGGTTTTCCCGGTAATCCGTATTTGCT (site CAAGCGGCTAG) | 1.72
38 | CAAGCGGCATGGACCGGTTTTCCCGGTAATCCGTATTTGCT (site CAAGCTGCTAG) | 0
39 | CAAGCTGCATGGACCGGTTTTCCCGGTAATCCGTATTTGGG (site CAAGCTGCTCC) | 0.0432
40 | CAAGGACCATGGACCGGTTTTCCCGGTAATCCGTATTTGGG (site CAAGGACCTCC) | 0
41 | CAAGGACCATGGACCGGTTTTCCCGGTAATCCGTATTTGGG (site CCAGGACCTCC) | 0.0136
42 | CAAGGACCATGGACCGGTTTTCCCGGTAATCCGTATTTGGG (site CGAGGACCTCC) | 0.0074
43 | CAAGGACCATGGACCGGTTTTCCCGGTAATCCGTATTTGGG (site CTAGGACCTCC) | 0.0255
44 | CAAGGCACATGGACCGGTTTTCCCGGTAATCCGTATTTGGG (site CAAGACACTCC) | 0.00686
45 | CAAGGCACATGGACCGGTTTTCCCGGTAATCCGTATTTGGG (site CAAGCCACTCC) | 0.0196
46 | CAAGGCACATGGACCGGTTTTCCCGGTAATCCGTATTTGGG (site CAAGGCACTCC) | 0.0216
47 | CAAGGCACATGGACCGGTTTTCCCGGTAATCCGTATTTGGG (site CAAGTCACTCC) | 0.397
48 | CAAGGCCCATGGACCGGTTTTCCCGGTAATCCGTATTTGTT (site CAAGGCCCTAA) | 0.0195
49 | CAAGGCCCATGGACCGGTTTTCCCGGTAATCCGTATTTGTT (site CACGGCCCTAA) | 0.0285
50 | CAAGGCCCATGGACCGGTTTTCCCGGTAATCCGTATTTGTT (site CAGGGCCCTAA) | 0.0144

Row | Sequence | recombinant UMI read abundance (log10)
51 | CAAGGCCCATGGACCGGTTTTCCCGGTAATCCGTATTTGTT (site CATGGCCCTAA) | 0.0187
52 | CAAGGCGCATGGACCGGTTTTCCCGGTAATCCGTATTTGGA (site CAAGGCGCTTC) | 1.42
53 | CAAGGGCCATGGACCGGTTTTCCCGGTAATCCGTATTTGTG (site CAAGAGCCTCA) | 0.431
54 | CAAGGGCCATGGACCGGTTTTCCCGGTAATCCGTATTTGTG (site CAAGCGCCTCA) | 0.0177
55 | CAAGGGCCATGGACCGGTTTTCCCGGTAATCCGTATTTGTG (site CAAGGGCCTCA) | 0.314
56 | CAAGGGCCATGGACCGGTTTTCCCGGTAATCCGTATTTGTG (site CAAGTGCCTCA) | 0.115
57 | CAAGGGGCATGGACCGGTTTTCCCGGTAATCCGTATTTGTT (site CAAGGGGCTAA) | 2.43
58 | CAAGGTGCATGGACCGGTTTTCCCGGTAATCCGTATTTGAT (site CAAGGTGCTAT) | 2.52
59 | CAAGGTGCATGGACCGGTTTTCCCGGTAATCCGTATTTGAT (site CCAGGTGCTAT) | 0.8
60 | CAAGGTGCATGGACCGGTTTTCCCGGTAATCCGTATTTGAT (site CGAGGTGCTAT) | 1.13
61 | CAAGGTGCATGGACCGGTTTTCCCGGTAATCCGTATTTGAT (site CTAGGTGCTAT) | 1.67
62 | CAAGTAGCATGGACCGGTTTTCCCGGTAATCCGTATTTGCT (site CAAGAAGCTAG) | 0
63 | CAAGTAGCATGGACCGGTTTTCCCGGTAATCCGTATTTGCT (site CAAGCAGCTAG) | 0.378
64 | CAAGTAGCATGGACCGGTTTTCCCGGTAATCCGTATTTGCT (site CAAGGAGCTAG) | 0.0678
65 | CAAGTAGCATGGACCGGTTTTCCCGGTAATCCGTATTTGCT (site CAAGTAGCTAG) | 1.66
66 | CAAGTATCATGGACCGGTTTTCCCGGTAATCCGTATTTGAG (site CAAGTATCTCT) | 3.07
67 | CAAGTATCATGGACCGGTTTTCCCGGTAATCCGTATTTGAG (site CTAGTATCTGT) | 0
68 | CAAGTCACATGGACCGGTTTTCCCGGTAATCCGTATTTGGA (site CAAGTCACTAC) | 0.358
69 | CAAGTCACATGGACCGGTTTTCCCGGTAATCCGTATTTGGA (site CAAGTCACTCC) | 0.638
70 | CAAGTCACATGGACCGGTTTTCCCGGTAATCCGTATTTGGA (site CAAGTCACTGC) | 0.803
71 | CAAGTCACATGGACCGGTTTTCCCGGTAATCCGTATTTGGA (site CAAGTCACTTC) | 2.03
72 | CAAGTCACATGGACCGGTTTTCCCGGTAATCCGTATTTGTG (site CAAGTCACTCA) | 0.0199
73 | CAAGTCACATGGACCGGTTTTCCCGGTAATCCGTATTTGTG (site CAAGTCACTCC) | 0.0385
74 | CAAGTCACATGGACCGGTTTTCCCGGTAATCCGTATTTGTG (site CAAGTCACTCG) | 0.151
75 | CAAGTCACATGGACCGGTTTTCCCGGTAATCCGTATTTGTG (site CAAGTCACTCT) | 0.103
